Assay results as given in patent US9504676B2, “Molecules inhibiting a metabolic pathway involving the Syk protein tyrosine kinase and method for identifying said molecules” (CENTRE NATIONAL DE LA RECHERCHE SCIENTIFIQUE, priority 2008, dated 2016).

How the values were obtained:
BALB/c mice = test: Peritonitis: Syk-dependent peritoneal neutrophil recruitment; assay type: in vivo; settings: single oral administration of 100 mg/kg, Bordetella pertussis toxin
Akt = test: Phosphorylation of Akt (PI3K activity marker, Fyn-dependent cascade); assay type: cell-based; settings: RBL-2H3 cells and BMMCs
Experimental: In mast cells, the signalling cascade Fyn/Gab2/PI3K gives rise to the activation of PI3K and the generation of PI-3,4,5-P3 recruiting a number of proteins containing a pleckstrin homology domain (PH), including Btk and PLC-γ on the plasma membrane^19.
• 1) Chemical products and antibodies. A chemical bank of 3000 molecules (a varied subset) was acquired from ChemBridge, Inc. (San Diego, Calif.). Stocks of solutions of small molecules were prepared at a rate of 10 mM in DMSO (dimethylsulphoxide), except for C-13 (methyl 2-{5-[(3-benzyl-4-oxo-2-thioxo-1,3-thiazolidin-5-ylidene)methyl]-2-furyl}benzoate, ChemBridge ID No. 6197026) prepared in DMF (dimethylformamide). Unless specified otherwise, all the reagents were supplied by Sigma. […] The binding of G4G11 with Syk was assessed by adding the 9E10 monoclonal antibody conjugated with HRP detecting the amino acid sequence EQKLISEEDLN of human c-myc protein located at the C-terminal end of the scFv fragment. To generate Syk mutants, targeted mutagenesis was used on GST:Syk 6-242 protein and the binding of G4G11 with the mutants was assessed in the presence of 5 μM of C-13. • 3) Cells, culture conditions and functional tests. […] The level of β-hexosaminidase released was measured 10 min later and the TNF-α titration was performed by means of a cytotoxicity test on L929 cells as described previously^10, 3 hours after stimulation. […]

How did the “Syk-dependent neutrophil recruitment induced by thioglycollate in the peritoneal cavity” value (BALB/c mice) turn out when `COC(=O)c1ccccc1-c1ccc(/C=C2/SC(=S)N(Cc3ccccc3)C2=O)o1` [Molecule C-13, methyl 2-{5-[(3-benzyl-4-oxo-2-thioxo-1,3-thiazolidin-5-ylidene)methyl]-2-furyl}benzoate] was run?
The value was “did not affect”.

What about the “Fyn-dependent cascade (phosphorylation of Akt)” value (Akt) of the same compound?
The value was “did not affect”.
